According to patent publication EP0937459A2, “Pharmaceutical compositions for the treatment of ischemic brain damage” (Sumitomo Pharmaceuticals Company, Limited, priority 1998, dated 1999):

Key:
transient ischemic rats = assay: Infarcted area in rats with transient ischemia (2 h middle cerebral artery occlusion, then reperfusion); type: in vivo; settings: 1 mg/ml
Protocol: Male rats were anesthetized with halothane mixed with nitrous oxide. The cervical region was dissected to ligate the left external carotid artery and the left common carotid artery. Occlusion was induced for 2 hours in the control section at the origin of the middle cerebral artery by inserting a nylon thread through the left internal carotid artery to reach the left middle deutocerebral artery. Reperfusion through the middle cerebral artery was established by withdrawing the nylon thread. The test compound was intravenously given to the animals in a volume of 1 ml/kg at 30 minutes after the occlusion. As the test compound, a solution of Compound 1 (1 mg/ml) in 8% polyethylene glycol #400 was used. For control, the vehicle (8% polyethylene glycol #400) containing no active compound was used. The animals were decapitated 22 hours after reperfusion and the brain was removed. Coronal sections of 2 mm thick were prepared in the ipsilateral hemisphere from 3 mm anterior to 5 mm posterior of the bregma. The sections were stained with 2,3,5-triphenyltetrazolium chloride for photographing. The photographs were scanned with a scanner (GT-8000, Epson) for computer-based image analysis (software used, Ep Scan Mac 1. 40). The rate of the infarcted area of each section in the left hemisphere was analyzed by a computer (software used, NIH image 1.59). The pharmacological effect was evaluated by mean percentage of the infarcted areas in the five sections obtained in one rat.
Compound 2 was elucidated for the effect on the infarcted area in a manner similar to that of Example 1. The test compound was intraperitoneally given 30 minutes before the occlusion to the animals in a volume of 1 ml/kg. As the test compound, a solution of Compound 2 (1 mg/ml) in 8% polyethylene glycol #400 was used. For control, the vehicle (8% polyethylene glycol #400) containing no active compound was used.
Compound 3 was elucidated for the effect on the infarcted area in a manner similar to that of Example 1. […]

[1] = tested on: rats with transient ischemia; assay: Brain edema (brain water content) in rats with transient ischemia; type: in vivo
Protocol: Male rats were anesthetized with halothane mixed with nitrous oxide. The cervical region was dissected to ligate the left external carotid artery and the left common carotid artery. Occlusion was induced for 2 hours in the control section at the origin of the middle cerebral artery by inserting a nylon thread through the left internal carotid artery to reach the left middle deutocerebral artery. Reperfusion through the middle cerebral artery was established by withdrawing the nylon thread. The test compound was intravenously given to the animals an hour after the occlusion in a volume of 1 ml/kg. As the test compound, a solution of Compound 1 (0.3 mg/ml or 1 mg/ml) in 8% polyethylene glycol #400 was used. For control, the vehicle alone (8% polyethylene glycol #400) containing no active compound was used. The animals were decapitated 4 hours after reperfusion and the brain was removed. Coronal sections of 4 mm thick were prepared in the ipsilateral hemisphere from 1 mm anterior to 3 mm posterior of the bregma. After the wet weight (W) of each section was weighed, the section was dried in an oven at 110°C for 24 hours and then its dry weight (D) was weighed. The brain water content (WC) was calculated according to the following equation. WC = (W - D) / W x 100 [formula] In the normal control group, the brain water content was 79.9 ± 0.1% (mean ± standard error in 15 cases); however, by reperfusion following the occlusion, the brain water content in the control group increased to 83.3 ± 0.3% (mean + standard error in 15 cases).
Compound 2 was elucidated for the effect on brain edema in a manner similar to that of Example 4. The test compound was intravenously given immediately after the reperfusion to the animals in a volume of 1 ml/kg. As the test compound, a solution of Compound 2 (1 mg/ml) in 8% polyethylene glycol #400 was used. For control, the vehicle (8% polyethylene glycol #400) containing no active compound was used.
Compound 3 was elucidated for the effect on brain edema in a manner similar to that of Example 4. The test compound was intravenously given immediately after the reperfusion to the animals in a volume of 1 ml/kg. As the test compound, a solution of Compound 3 (0.3 mg/ml or 1 mg/ml) in 8% polyethylene glycol #400 was used. For control, the vehicle alone (8% polyethylene glycol #400) containing no active compound was used.

cultured glial cells = settings: Kempski et al., Stroke 19, 385-392, 1988; cited from earlier work
ischemic animal models = ischemic animal models in vivo; literature; cited from earlier work

Cn1c(C(=O)N=C(N)N)cc2ccccc21 [Compound 1, 1-methyl-2-indoloylguanidine methanesulfonate]
mean infarcted area observed in each section (transient ischemic rats; 1 ml/kg intravenously 30 minutes after the occlusion, 22 hours after reperfusion, mean ± standard error in 8 cases, control group 47.9 ± 3.6%, p<5%): 35.4 ± 3.1% | brain water content ([1]; 0.3 mg/kg intravenously an hour after the occlusion, 4 hours after reperfusion, mean ± standard error in 16 cases, normal control 79.9 ± 0.1%, control group 83.3 ± 0.3%, p<1%): 82.6 ± 0.3% | brain water content ([1]; 1 mg/kg intravenously an hour after the occlusion, 4 hours after reperfusion, mean ± standard error in 16 cases, normal control 79.9 ± 0.1%, control group 83.3 ± 0.3%, p<1%): 82.2 ± 0.3%

Cc1cccc2c1cc(C(=O)N=C(N)N)n2C [Compound 2, 1,4-dimethyl-2-indoloylguanidine methanesulfonate]
infarcted area observed in each section (transient ischemic rats; 1 ml/kg intraperitoneally 30 minutes before the occlusion, mean ± standard error in 5 cases, control group 49.5 ± 4.1%, p<1%): 26.6 ± 3.1% | brain water content ([1]; 1 mg/ml, 1 ml/kg intravenously immediately after the reperfusion, mean ± standard error in 11 cases, normal control 78.7 ± 0.1%, control group 81.9 ± 0.4%, no significant effect): 82.0 ± 0.4%

N=C(N)NC(=O)c1cc2c(Cl)ccc3c2n1CCCCC3=O [Compound 3, N-(aminoiminomethyl)-5,6,7,8-tetrahydro-11-chloro-8-oxo-4H-azocino[3,2,1-hi]indole-2-carboxamide methanesulfonate monohydrate]
infarcted area observed in each section (transient ischemic rats; 1 ml/kg intraperitoneally immediately after the occlusion, mean ± standard error in 13 cases, control group 55.4 ± 2.1%, p<5%): 45.2 ± 2.2% | brain water content ([1]; 0.3 mg/kg intravenously immediately after the reperfusion, mean ± standard error in 9 cases, normal control 79.2 ± 0.2%, control group 82.8 ± 0.3%, tendency): 82.4 ± 0.3% | brain water content ([1]; 1 mg/kg intravenously immediately after the reperfusion, mean ± standard error in 11 cases, normal control 79.2 ± 0.2%, control group 82.8 ± 0.3%, tendency): 81.7 ± 0.4%

CC(=O)Nc1nnc(S(N)(=O)=O)s1 [acetazolamide]
cell swelling induced by acid loading (cultured glial cells): cell swelling was prevented | effect of preventing cerebral edema (ischemic animal models): no significant effect of preventing cerebral edema

N=C(N)NC(=O)c1nc(Cl)c(N)nc1N [amiloride]
cell swelling induced by acid loading (cultured glial cells): attenuated cell swelling
